Reference: patent publication US4359462A, “Antibiotic 67-121, a new polyene antifungal antibiotic produced by Actinoplanes caeruleus” (priority 1980, dated 1982)
Converted amounts (≈) assume the structure as drawn. Read-outs that look alike come from different tables or passages of the source.

Key:
Candida albicans [1] = test: In vivo protective activity in mice against Candida albicans, single dose one hour after infection; parameters: species or system CF 1 mice; conditions: read-out: PD50
Method: (§1) The in vivo protective activity of the antibiotic products in mice (Carworth farm CF 1 mice, each weighing about 20 g.) against Candida albicans was determined. The antibiotic was administered by the stated route in an aqueous vehicle containing 0.5% carboxymethyl cellulose and in two doses. One dose was administered shortly before intravenous infection with a lethal dose of Candida albicans and the other dose was administered 4 hours after infection. Most of the unprotected control mice died within 24 to 48 hours after infection. The survival rate was determined at the end of 24 and 48 hours and from this using standard procedures the PD50 values were determined.
The PD50 values for antibiotics 67-121A, 67-121B and 67-121C using CF 1 mice were determined using essentially the above described method, with the exception that the antibiotic was administered as a single dose one hour after infection with Candida albicans.
The PD50 values were determined on survivors 72 hours after infection. Of the untreated, infected control mice, 80% died within 24 hours and 100% within 48 hours.

pKa = conditions: 66% aqueous dimethylformamide, 66% aqueous dimethyl formamide
[2] = Acute toxicity in male CF 1 mice; conditions: mouse, in vivo
Method: Similarly, in another series of tests the acute toxicity of antibiotics 67-121A, 67-121B and 67121C were determined in male CF 1 mice.

physchem = conditions: 66% aqueous dimethylformamide
Cryotococcus = test: In vitro antifungal activity, MIC by tube dilution; type: cell-based; conditions: single strain; same conditions (48 hours)
Method: (§2) For reference, data on candicidin are also given. The quoted minimal inhibitory concentrations (MIC) were obtained by conventional tube dilution techniques using Sabouraud's dextrose broth.
(§3) As representative of the component antibiotics, antibiotic 67-121A and antibiotic 67-121C were tested in the same manner as the complex. Antibiotic 67-121A gave MIC values of from less than 0.01 up to 0.03 meg/ml. against 18 strains of Candida albicans, while antibiotic 67-121C gave MIC values of 0.05 to 0.3 meg/ml. against 9 strains of Candida albicans after incubation times of 48 hours. Further testing of antibiotic 67-121C under the same conditions gave MIC values of 0.3 meg/ml. against two strains of Torulopsis and a single strain of Cryotococcus.

Torulopsis = test: In vitro antifungal activity, MIC by tube dilution; type: cell-based; conditions: two strains of Torulopsis; same conditions (48 hours)
Method: as §2, §3

mice = test: Acute toxicity in mice; type: in vivo
Method: The acute toxicity of the antibiotic 67-121 complex in mice was determined via intraperitoneal (I.P.) and subcutaneous (S.C.) administration. For comparison, the values of candicidin were determined.

Candida albicans [3] = test: In vivo protective activity in mice against lethal Candida albicans infection, two doses; parameters: species or system mice (Carworth farm CF 1); conditions: survivors 48 hours after infection
Method: as §1
The results obtained for the Antibiotic 67-121 complex are given in Table 5 together with data for candicidin (for comparison purposes). The PD50 values were determined on survivors 48 hours after infection.

Aspergillus niger = test: In vitro antifungal activity, MIC by tube dilution; type: cell-based; conditions: 72 hrs.
Excerpt: as §2

Trichophyton soudanese = test: In vitro antifungal activity, MIC by tube dilution; type: cell-based; conditions: strain 2; 72 hrs.
Excerpt: as §2

[4] = system: Trichophyton mentagrophytes; test: In vitro antifungal activity, MIC by tube dilution; type: cell-based; conditions: 72 hrs.
Excerpt: as §2

Terulopsis glabrata = test: In vitro antifungal activity, MIC by tube dilution; type: cell-based
Excerpt: as §2

Candida albicans [5] = test: In vitro antifungal activity, MIC by tube dilution (Sabouraud's dextrose broth); type: cell-based
Method: as §2, §3

[6] = Oral, single dose one hour after infection, survivors 72 hours after infection
[7] = sc, Subcutaneous, single dose one hour after infection, survivors 72 hours after infection

Question: With `CNc1ccc(C(=O)CC(O)CCC(C)C2OC(=O)CC(O)CC(O)CC(O)CC(O)CC(O)CC(O)CC3(O)CC(O)C(C(=O)O)C(CC(OC4OC(C)C(O)C(N)C4O)C=CC=CC=CC=CC=CC=CC=CC2C)O3)cc1` (centres unmarked) [Antibiotic 67-121A] as the compound, how does the ED50 (Candida albicans [1]; po, 72 h) read?
Answer: 1.5 mg/kg

Question: And the ED50 (Candida albicans [1]; sc, 72 h)?
Answer: 2.5 mg/kg

Question: What about the pKa (pKa; pka (COO^-)) of the same compound?
Answer: 6

Question: What about the pKa (pKa; pka (NH3^+)) of the same compound?
Answer: 9

Question: What about the LD50 ([2]; ip, I.P.) of the same compound?
Answer: 2.4 mg/kg

Question: And the LD50 ([2]; sc, S.C.)?
Answer: > 50 mg/kg

Question: And the LD50 ([2]; Oral)?
Answer: > 50 mg/kg

Question: Which ED50 (Candida albicans [1]; [6]) does the source give for `CC1C=CC=CC=CC=CC=CC=CC=CC(OC2OC(C)C(O)C(N)C2O)CC2OC(O)(CC(O)CC(O)CC(O)CC(O)CC(O)CC(O)CC(=O)OC1C(C)CCC(O)CC(=O)c1ccc(N)cc1)CC(O)C2C(=O)O` (centres unmarked) [Antibiotic 67-121B] here?
Answer: 18 mg/kg

Question: And the ED50 (Candida albicans [1]; [7])?
Answer: 15 mg/kg

Question: What about the LD50 ([2]; ip) of the same compound?
Answer: 6 mg/kg

Question: And the LD50 ([2]; po)?
Answer: > 50 mg/kg

Question: And the LD50 ([2]; sc)?
Answer: > 50 mg/kg

Question: What about the pKa (physchem; pka (COO^-)) of the same compound?
Answer: 6.3

Question: And the pKa (physchem; pka (NH3^+))?
Answer: 9

Question: Which results are given for `CNc1ccc(C(=O)CC(O)CCC(C)C2OC(=O)CC(O)CC(O)CC(O)CC(O)CC(O)CC(O)CC3(O)CC(O)C(C(=O)O)C(CC(OC4OC(C)C(OC5OC(CO)C(O)C(O)C5O)C(N)C4O)C=CC=CC=CC=CC=CC=CC=CC2C)O3)cc1` (centres unmarked) [Antibiotic 67-121C]?
Answer: ED50 (Candida albicans [1]; [6]): 1.5 mg/kg; ED50 (Candida albicans [1]; [7]): 2.1 mg/kg; MIC (Cryotococcus): 0.3 µg/mL (≈ 0.232 µM); MIC (Torulopsis): 0.3 µg/mL (≈ 0.232 µM); LD50 ([2]; ip): 6 mg/kg; pKa (physchem; pka (COO^-)): 6; pKa (physchem; pka (NH3^+)): 9

Question: Which results are given for Candicidin?
Answer: LD50 (mice; I.P.): 8 to 22 mg/kg; LD50 (mice; S.C.): 300 mg/kg; PD50 (Candida albicans [3]; Test 1, Oral): 25 mg/kg; PD50 (Candida albicans [3]; Test 1, Subcutaneous): 5 mg/kg; PD50 (Candida albicans [3]; Test 2, Oral): 5 mg/kg; PD50 (Candida albicans [3]; Test 2, Subcutaneous): 5 mg/kg; PD50 (Candida albicans [3]; Test 3, Subcutaneous): 25 mg/kg; PD50 (Candida albicans [3]; Test 4, Oral): 40 mg/kg; PD50 (Candida albicans [3]; Test 4, Subcutaneous): 2.5 mg/kg; Minimum Inhibitory Concentration (M.I.C.) (Aspergillus niger): 7.5 meg/ml; Minimum Inhibitory Concentration (M.I.C.) (Trichophyton soudanese): 25 meg/ml; Minimum Inhibitory Concentration (M.I.C.) ([4]; strain 1A): 17.5 meg/ml; Minimum Inhibitory Concentration (M.I.C.) ([4]; strain 17): 25 meg/ml; Minimum Inhibitory Concentration (M.I.C.) (Terulopsis glabrata; strain 1, 24 hrs.): 0.03 meg/ml; Minimum Inhibitory Concentration (M.I.C.) (Terulopsis glabrata; strain 1, 48 hrs.): 0.3 meg/ml; Minimum Inhibitory Concentration (M.I.C.) (Terulopsis glabrata; strain 2, 24 hrs.): 0.03 meg/ml; Minimum Inhibitory Concentration (M.I.C.) (Terulopsis glabrata; strain 2, 48 hrs.): 0.08 meg/ml; Minimum Inhibitory Concentration (M.I.C.) (Terulopsis glabrata; strain 3, 24 hrs.): 0.03 meg/ml; Minimum Inhibitory Concentration (M.I.C.) (Terulopsis glabrata; strain 3, 48 hrs.): 0.08 meg/ml; Minimum Inhibitory Concentration (M.I.C.) (Terulopsis glabrata; strain 16, 24 hrs.): 0.03 meg/ml; Minimum Inhibitory Concentration (M.I.C.) (Terulopsis glabrata; strain 16, 48 hrs.): 0.3 meg/ml; Minimum Inhibitory Concentration (M.I.C.) (Terulopsis glabrata; strain 17, 24 hrs.): 0.03 meg/ml; Minimum Inhibitory Concentration (M.I.C.) (Terulopsis glabrata; strain 17, 48 hrs.): 0.08 meg/ml; Minimum Inhibitory Concentration (M.I.C.) (Candida albicans [5]; strain 401, 24 hrs.): 0.8 meg/ml; Minimum Inhibitory Concentration (M.I.C.) (Candida albicans [5]; strain 401, 48 hrs.): 3.0 meg/ml; Minimum Inhibitory Concentration (M.I.C.) (Candida albicans [5]; strain 402, 24 hrs.): 0.03 meg/ml; Minimum Inhibitory Concentration (M.I.C.) (Candida albicans [5]; strain 402, 48 hrs.): 0.08 meg/ml; Minimum Inhibitory Concentration (M.I.C.) (Candida albicans [5]; strain 403, 24 hrs.): 0.03 meg/ml; Minimum Inhibitory Concentration (M.I.C.) (Candida albicans [5]; strain 403, 48 hrs.): 0.08 meg/ml; Minimum Inhibitory Concentration (M.I.C.) (Candida albicans [5]; strain 404, 24 hrs.): 0.8 meg/ml; Minimum Inhibitory Concentration (M.I.C.) (Candida albicans [5]; strain 404, 48 hrs.): 3.0 meg/ml; Minimum Inhibitory Concentration (M.I.C.) (Candida albicans [5]; strain 406, 24 hrs.): 0.03 meg/ml; Minimum Inhibitory Concentration (M.I.C.) (Candida albicans [5]; strain 406, 48 hrs.): 0.08 meg/ml; Minimum Inhibitory Concentration (M.I.C.) (Candida albicans [5]; strain 420, 24 hrs.): 3.0 meg/ml; Minimum Inhibitory Concentration (M.I.C.) (Candida albicans [5]; strain 420, 48 hrs.): 7.5 meg/ml
